Experimental data from the supplement of paper PMC10307832.

Assays:
Test in all cases: relative viability (nuclei count vs DMSO), 5 days (fraction); higher = more cells survive
CUDC-101 + Vorinostat = compound: C#Cc1cccc(Nc2ncnc3cc(OC)c(OCCCCCCC(=O)NO)cc23)c1 [CUDC-101] + O=C(CCCCCCC(=O)Nc1ccccc1)NO [Vorinostat] (partner 1 µM)
How it was run: (§1)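 Relative viability equals treated-well nuclei counts divided by vehicle-well nuclei counts. Counts came from 4× images of lung cancer cell lines grown in 1536-well plates for 5 days after pin-tool dosing on the day after seeding. Dosing used one drug alone or a fixed anchor-drug dose plus five library-drug doses (not always all listed) in √10 steps, and values are medians of duplicate plates.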

CUDC-101 + Palbociclib = compound: C#Cc1cccc(Nc2ncnc3cc(OC)c(OCCCCCCC(=O)NO)cc23)c1 [CUDC-101] + CC(=O)c1c(C)c2cnc(Nc3ccc(N4CCNCC4)cn3)nc2n(C2CCCC2)c1=O [Palbociclib] (partner 0.5 µM)
How it was run: as §1

Vandetanib + OSI-027 = compound: COc1cc2/c(=N/c3ccc(Br)cc3F)nc[nH]c2cc1OCC1CCN(C)CC1 [Vandetanib] + COc1cccc2cc(-c3nc([C@H]4CC[C@H](C(=O)O)CC4)n4ncnc(N)c34)[nH]c12 [OSI-027] (partner 0.5 µM)
How it was run: as §1

NVP-TAE684 + Olaparib = compound: COc1cc(N2CCC(N3CCN(C)CC3)CC2)ccc1Nc1ncc(Cl)c(Nc2ccccc2S(=O)(=O)C(C)C)n1 [NVP-TAE684] + O=C(c1cc(Cc2n[nH]c(=O)c3ccccc23)ccc1F)N1CCN(C(=O)C2CC2)CC1 [Olaparib] (partner 8 µM)
How it was run: as §1

Row | Cell Line | relative viability (CUDC-101 + Vorinostat; first compound 0.01 µM) | relative viability (CUDC-101 + Vorinostat; first compound 0.03162 µM) | relative viability (CUDC-101 + Vorinostat; first compound 0.1 µM) | relative viability (CUDC-101 + Vorinostat; first compound 0.3162 µM) | relative viability (CUDC-101 + Vorinostat; first compound 1 µM) | relative viability (CUDC-101 + Palbociclib; first compound 0.01 µM) | relative viability (CUDC-101 + Palbociclib; first compound 0.03162 µM) | relative viability (CUDC-101 + Palbociclib; first compound 0.1 µM) | relative viability (CUDC-101 + Palbociclib; first compound 0.3162 µM) | relative viability (CUDC-101 + Palbociclib; first compound 1 µM) | relative viability (Vandetanib + OSI-027; first compound 0.02 µM) | relative viability (Vandetanib + OSI-027; first compound 0.06325 µM) | relative viability (Vandetanib + OSI-027; first compound 0.6325 µM) | relative viability (Vandetanib + OSI-027; first compound 2 µM) | relative viability (NVP-TAE684 + Olaparib; first compound 0.2 µM) | relative viability (NVP-TAE684 + Olaparib; first compound 0.6325 µM) | relative viability (NVP-TAE684 + Olaparib; first compound 2 µM) | relative viability (Vandetanib + OSI-027; first compound 0.2 µM)
1 | NCI-H650 | 0.547 | 0.517 | 0.414 | 0.456 | 0.51 | 0.402 | 0.365 | 0.302 | 0.374 | 0.29 | 0.491 | 0.531 | 0.521 | 0.447 | 0.423 | 0.376 | 0.289 | 
2 | NCI-H1437 | 0.864 | 0.857 | 0.814 | 0.808 | 0.495 | 0.287 | 0.327 | 0.302 | 0.342 | 0.302 | 0.835 | 0.899 | 0.886 | 0.964 | 0.65 | 0.663 | 0.523 | 0.868
3 | EBC-1 |  |  |  |  |  |  |  |  |  |  |  |  |  |  | 0.713 | 0.661 | 0.55 | 
4 | IA-LM | 0.997 | 0.915 | 0.93 | 0.797 | 0.586 |  |  |  |  |  |  |  |  |  | 0.745 | 0.799 | 0.638 | 
5 | NCI-H1299 |  |  |  |  |  |  |  |  |  |  |  |  |  |  | 0.979 | 1.02 | 0.682 | 
6 | NCI-H596 | 0.569 | 0.605 | 0.501 | 0.735 | 0.501 |  |  |  |  |  | 0.751 | 0.674 | 0.726 | 0.74 | 0.66 | 0.595 | 0.537 | 0.665
7 | NCI-H1623 |  |  |  |  |  |  |  |  |  |  | 0.479 | 0.439 | 0.398 | 0.455 |  |  |  | 0.454
8 | NCI-H1563 |  |  |  |  |  |  |  |  |  |  | 0.79 | 0.8 | 0.76 | 0.734 |  |  |  | 0.743
9 | A549 |  |  |  |  |  |  |  |  |  |  |  |  |  |  | 0.308 | 0.387 | 0.3 | 
10 | Calu-6 |  |  |  |  |  |  |  |  |  |  |  |  |  |  | 0.657 | 0.519 | 0.357 | 
